These results are taken from patent US20070078116A1, “Method of treatment of otitis externa” (Fairfield Clinical Trials, LLC, priority 2003, published 2007).

In assay [1] the test system is Candida albicans (ATCC 90028). As to the kind of experiment: Filter paper disk test on agar plates containing C. albicans. The settings on record: 5 μL or 10 μL on paper disk, 37° C., 24-72 hours. The format is cell-based. As to the method: (§1) Candida albicans (ATCC 90028) and Aspergillis fumigatus (ATCC 16424) were tested in vitro for the effect of antifungal compositions according to embodiments of the invention. Fungal cells were obtained from the American Type Culture Collection.
(§2) C. Albicans yeast cells were grown in YM broth (Difco™ 0711-01) containing the following ingredients: 1% peptone, 1% yeast extract and 2% glucose. The cells were grown at 37° C., harvested by centrifugation, resuspended in the same medium and stored frozen at −80° C. The cells were used at a concentration of about 1×10^6 cells/mL. A. fumigatus was cultured on solid MPG containing 20 g/L malt extract (Difco™ 21860); 1 g/L Difco™ 211677); 20 g/L sucrose and 15 g/L Bacto-agar (Difco™ 140-07-04) in water, at 37° C. for 7 to 10 days. Conidia were harvested by flooding the medium with sterile water, filtered through glass wool to exclude hyphal fragments, washed by centrifugation (5000 xg for 10 minutes at 4° C., resuspended at about 1×10^6 conidia/mL in water and stored at −80° C. until used.
(§3) For testing, A. fumigatus conidia and C. albicans cells were thawed. […]
(§4) Samples (5 μL, 10 μL or 20 μL as indicated in the Figures) of liquid drug formulation were placed on sterile filter paper disks and the disks allowed to air dry 15-30 minutes at room temperature in a Class II biosafety hood. […] A portion of each sample was analyzed for potency. […]

Assay [2] has as its system Aspergillis fumigatus (ATCC 16424). The experiment in a line: Filter paper disk test on agar plates containing A. fumigatus (zone of killing). The class given is cell-based. The note with it: 5 μL or 10 μL on paper disk, 37° C., 24-72 hours. As to the method:
as §1, §2, §3, §4

`Clc1ccc(COC(Cn2ccnc2)c2ccc(Cl)cc2Cl)c(Cl)c1` (centres unmarked) [Miconazole, miconazole]: the “killing of C. albicans (visual observation of plates)” value in assay [1] was “highly active”. Further, in assay [2], the “killing of A. fumigatus (visual observation of plates)” value is reported as “highly active”.
